Test: in vitro
Experimental: The spheron component peptides in phosphate buffered saline (PBS) were incubated alone and in combination into glioma cell cultures and neuroblastoma cell cultures. Controls of
Cryopreserved glioma and neuroblastoma cells were acquired from the American Type Culture Collection (ATCC), Virginia. Cells were thawed and diluted in suspension media and centrifuged at 700 rpm for 7 minutes at 4 C. Cell pellets then were resuspended in CACO-2 media and cultured in standard 75 or 175 cm^2 flasks at 37 C, 5% CO(2) until approximately confluent. The cells were then trypsinized and resuspended in CACO-2 media to achieve a final cell density of 1.5×10^5 cells/mL. 50 μL aliquots per sample were then added per well to 96 well plates.
For Experiment I, 50 μL of either PBS (phosphate buffered solution) (negative control), 100 μM tamoxifen in phosphate buffered saline PBS (positive control), or test article were added to each sample culture.
An MTT assay is a sensitive assay for the measurement of cell proliferation based upon the reduction of the tetrazolium salt 3,[4,5-dimetylthiazol-2-yl]-2,5-diphenyltetrazolium bromide (MTT). […] Plates were then agitated gently for 1 minute on a rotary shaker and the difference between emission absorbance of 570 nm and background absorbance of 650 nm was measured spectrophotometrically on an automated plate reader. […]

With `CC/C(=C(\c1ccccc1)c1ccc(OCCN(C)C)cc1)c1ccccc1` [Tamoxifen, tamoxifen] as the compound, how does the viability at 4 days, 100 µM read?
The viability at 4 days, 100 µM was 63%.

Source: patent US20040002460A1, “Spheron components useful in determining compounds capable of treating symptoms of Alzheimer's disease, and treatments and animal models produced therefrom” (priority 2002, published 2004)
